Several values for one entry are separate records, joined by “and”; a condition that tells them apart may be missing. Identical values can stand only once.
Key:
hybridoma subclone 2A5 = assay: Competition ELISA, hybridoma subclone 2A5 supernatant (FIG. 3); type: binding, mouse
Method: Supernatants were also tested by competition ELISA to determine if the signals were specific to either risperidone or paliperidone. […] In this competitive format as show in FIG. 4, a low level of analyte (risperidone) results in high signal, whereas a high level of analyte (risperidone) results in low signal. The amount of risperidone in the sample can be calculated from the loss of fluorescence compared to a control sample with no drug present.

[1] = ELISA reactivity of hybridoma supernatants, Ag = Bt-Compound#1 (second TABLE 1); type: binding, mouse
[2] = Dilution 10800, duplicate wells

Molecule	competition ELISA reactivity (in words) (hybridoma subclone 2A5)	ELISA reactivity ([1]; Dilution 400, duplicate wells)	ELISA reactivity ([1]; Dilution 1200, duplicate wells)	ELISA reactivity ([1]; Dilution 3600, duplicate wells)	ELISA reactivity [1, 2]
Cc1nc2n(c(=O)c1CCN1CCC(c3noc4cc(F)ccc34)CC1)CCCC2O (stereo not shown) [paliperidone]	reactivity				
Cc1nc2n(c(=O)c1CCN1CCC(c3noc4cc(F)ccc34)CC1)CCCC2 [risperidone]	reactivity				
Cc1nc2n(c(=O)c1CCN1CCC(c3noc4cc(OCCN)ccc34)CC1)CCCC2O (stereo not shown) [Example 1, 3-(2-(4-(6-(2-aminoethoxy)benzo[d]isoxazol-3-yl)piperidin-1-yl)ethyl)-9-hydroxy-2-methyl-6,7,8,9-tetrahydro-4H-pyrido[1,2-a]pyrimidin-4-one]		3.2562 and 3.1217	1.3591 and 1.2607	0.3745 and 0.3281	0.0918 and 0.0879
2-(2,5-dioxo-2,5-dihydro-1H-pyrrol-1-yl)-N-(2-((3-(1-(2-(9-hydroxy-2-methyl-4-oxo-6,7,8,9-tetrahydro-4H-pyrido[1,2-a]pyrimidin-3-yl)ethyl)piperidin-4-yl)benzo[d]isoxazol-6-yl)oxy)ethyl)acetamide-keyhole limpet hemocyanin-conjugate [Example 5]		3.2897 and 3.1103	1.4605 and 1.4817	0.4617 and 0.4159	0.1149 and 0.1127
